In patent publication US10655163B2, “Methods, kits, and systems for multiplexed detection of target molecules and uses thereof” (THE GENERAL HOSPITAL CORPORATION, priority 2013, dated 2020):
Entries after “also recorded” stand apart in the source; their conditions may differ.

Columns and labels:
[1] = test system: four human cancer cell lines; experiment: Proteomic profiling of olaparib and cisplatin treatments; assay type: cell-based; settings: FIGS. 15C-15D
Procedure: Proteomic profiling of olaparib and cisplatin treatments was performed for four human cancer cell lines, showing varying drug sensitivities as measured by viability assays (FIGS. 14A-14B and FIG. 15A).
Drug treatments of cell lines. To test the effect of drug treatment on protein expression levels, the cell lines were treated with a number of different chemotherapeutic or molecularly targeted drugs. […] DNA-damaging agents olaparib and cisplatin were applied to cells for 3 days. Changes in protein expression levels were compared to medium controls under identical conditions but without drug treatment.
Data analysis: calculating proteomic expression profiles. Protein expression profiles were extracted from raw data as follows. First, raw DNA counts were normalized via the mean of the internal NanoString positive controls, which account for hybridization efficiency. […]
Correlation between single-cell analysis and bulk measurement was calculated in GraphPad Prism. Spearman r values were calculated without assuming a normal, consistent distribution. Two-sided P values were calculated, where significant markers were identified by comparing two groups (for example, treated versus untreated) in Prism and performing pairwise t tests with an FDR of 0.2 for multiple test correction error. […] Class separability was measured by the Bhattacharya distance.

[2] = test system: HT1080 fibrosarcoma cell lines; experiment: Taxol dose response screen in HT1080 cells, ABCD protein marker profiling; assay type: cell-based, human; settings: different doses of taxol
Excerpt: Having established feasibility of inter- and intrapatient analyses in clinical samples, it was next sought to explore the feasibility of monitoring cancer treatment over time. To this end, it was first sought to determine if known pathway responses to different drug treatments could be discriminated. […]. […] Notable examples include pS6RP for targeted treatments, and pH2A.X, pATM/ATR (phospho-ataxia telangiectasia mutated/ATM- and Rad3-related) substrate, and cleaved PARP for DNA-damaging agents. Unexpected results, such as epigenetic histone modifications after treatment with a phosphatidylinositol 3-kinase inhibitor (PI3Ki) was also found (FIG. 15E). For additional in vitro validation of treatment, HT1080 fibrosarcoma cell lines were treated with four different doses of taxol.
To evaluate the assay's ability to measure even small marker changes, HT1080 human fibrosarcoma cells were treated with taxol at […] different doses. Marker changes at high doses were compared to marker changes quantified by an independent immunofluorescence screen (FIG. 16A). […] These in vitro studies established that the marker panel could indeed measure pathway changes in response to varying drug mechanisms; furthermore, these changes could be detected in a sensitive, dose-dependent manner.
Immunofluorescence. […]

SMILES	changes in DNA damage and apoptosis markers [1]	protein marker changes in response to taxol treatment [2]
N.N.[Cl][Pt][Cl] [cisplatin]	degradation of Bim and up-regulation of pERK	
CC(=O)O[C@H]1C(=O)[C@@]2(C)[C@H]([C@H](OC(=O)c3ccccc3)[C@]3(O)C[C@H](OC(=O)[C@H](O)[C@@H](NC(=O)c4ccccc4)c4ccccc4)C(C)=C1C3(C)C)[C@]1(OC(C)=O)CO[C@@H]1C[C@@H]2O [taxol, paclitaxel]		dose-response changes; also recorded: dose-response curves
